{
  "source": "paper PMC9813109",
  "about": "“Phase I dose-escalation study of milademetan in patients with relapsed or refractory acute myeloid leukemia” (International Journal of Hematology, 2022)",
  "system": "R/R AML (blast count in bone marrow aspirate)",
  "assay": "Efficacy assessment: best response and bone marrow blast count",
  "type": "in vivo, human",
  "settings": "for Best response: Not applicable: SD < 3 months was deemed not applicable",
  "text": "Bone marrow and peripheral blood results were used to assess the antitumor effect of milademetan. AML response criteria were defined as shown in Supplementary Table 1. A morphologic leukemia-free state (MLFS) was defined as bone marrow blasts < 5% in the absence of blasts with Auer rods and the absence of extramedullary leukemia. The presence/absence of hematological recovery or blood transfusion was not considered. Stable disease (SD) was defined as an absence of CR, CR with incomplete hematologic recovery (CRi) or partial hematologic recovery (CRh), partial remission (PR), or MLFS, provided that the criteria for the progressive disease were not met. SD had to last at least 3 months (assessed as SD more than thrice in a row) after initiating milademetan treatment. SD < 3 months was deemed not applicable. The best-measured response was defined as the best overall response (all time points after the start of study treatment until the end of treatment). The composite CR (CRc) duration was defined as the time between when the criteria for […] first met and when a relapse was first confirmed. In addition to descriptive statistics, the geometric mean and geometric coefficient of variation were used to describe the PK parameters. All analyses were conducted using SAS® software (version 9.4; SAS Institute Inc., Cary, NC, USA). The time courses of mean plasma milademetan concentrations on days 1 and 14 of cycle 1 (linear scale) in the QD 14/28-day schedule were used for pharmacokinetic analysis. The best response was measured as CR, CRh, CRi, or PR. For efficacy analysis, a waterfall plot of the best percent change from baseline blast count in bone marrow aspirate on the QD 14/28-day schedule was drawn to assess the blast count reduction. In addition, line plots of individual serum MIC-1 levels were drawn in the QD 14/28-day schedule for the pharmacodynamics analysis set.",
  "data": [
    {"smiles": "CC1(C)CCC2(CC1)N[C@@H](C(=O)N[C@@H]1CC[C@@H](C(N)=O)OC1)[C@H](c1ccnc(Cl)c1F)[C@]21C(=O)Nc2cc(Cl)ccc21", "note": "[milademetan]", "values": [
      {"measurement": "Best response: Morphologic leukemia-free state", "setting": "90 mg/day (n = 4)", "result": "0 (0.0) n, %"},
      {"measurement": "Best response: Progressive disease", "setting": "90 mg/day (n = 4)", "result": "1 (25.0) n, %"},
      {"measurement": "Best response: Stable disease", "setting": "90 mg/day (n = 4)", "result": "1 (25.0) n, %"},
      {"measurement": "Best response: Not applicable", "setting": "90 mg/day (n = 4)", "result": "2 (50.0) n, %"},
      {"measurement": "Best response: Morphologic leukemia-free state", "setting": "120 mg/day (n = 5)", "result": "1 (20.0) n, %"},
      {"measurement": "Best response: Progressive disease", "setting": "120 mg/day (n = 5)", "result": "1 (20.0) n, %"},
      {"measurement": "Best response: Stable disease", "setting": "120 mg/day (n = 5)", "result": "0 (0.0) n, %"},
      {"measurement": "Best response: Not applicable", "setting": "120 mg/day (n = 5)", "result": "3 (60.0) n, %"},
      {"measurement": "Best response: Morphologic leukemia-free state", "setting": "160 mg/day (n = 3)", "result": "1 (33.3) n, %"},
      {"measurement": "Best response: Progressive disease", "setting": "160 mg/day (n = 3)", "result": "0 (0.0) n, %"},
      {"measurement": "Best response: Stable disease", "setting": "160 mg/day (n = 3)", "result": "0 (0.0) n, %"},
      {"measurement": "Best response: Not applicable", "setting": "160 mg/day (n = 3)", "result": "2 (66.7) n, %"},
      {"measurement": "Patients with a ≥ 50% reduction in baseline blast count in the bone marrow aspirate", "setting": "12 patients", "result": 33.3, "unit": "%"},
      {"measurement": "CR, CRh, CRi, or PR", "setting": "12 patients, 90, 120 or 160 mg", "result": "None of the patients"},
      {"measurement": "MLFS, patients", "setting": "12 patients, TP53 wild at baseline", "result": 16.7, "unit": "%"},
      {"measurement": "Best response: Morphologic leukemia-free state", "setting": "Total (n = 12)", "result": "2 (16.7) n, %"},
      {"measurement": "Best response: Progressive disease", "setting": "Total (n = 12)", "result": "2 (16.7) n, %"},
      {"measurement": "Best response: Stable disease", "setting": "Total (n = 12)", "result": "1 (8.3) n, %"},
      {"measurement": "Best response: Not applicable", "setting": "Total (n = 12)", "result": "7 (58.3) n, %"}
    ]}
  ]
}
